Test in all cases: relative viability (nuclei count vs DMSO), 5 days (fraction); higher = more cells survive
Compound in the assay “Ponatinib + Lapatinib”: Cc1ccc(C(=O)Nc2ccc(CN3CCN(C)CC3)c(C(F)(F)F)c2)cc1C#Cc1cnc2cccnn12 [Ponatinib] + CS(=O)(=O)CCNCc1ccc(-c2ccc3ncnc(Nc4ccc(OCc5cccc(F)c5)c(Cl)c4)c3c2)o1 [Lapatinib] (partner 2 µM)
An outline of the steps: (§1)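 After 5 days of treatment, lung cancer cells in 1536-well plates were fixed and stained in a single step (final 0.05% Triton X-100, 1% formaldehyde, 1 ug/ml Hoechst) and their nuclei counted on 4× images. Treatment had been applied by pin tool the day after seeding as one drug alone or as a fixed anchor-drug dose with five library-drug doses (not always all listed) in √10 steps. Relative viability is the nuclei count of treated wells divided by that of vehicle wells, and values are medians of duplicate plates.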

Compound in the assay “Pazopanib + Olaparib”: Cc1ccc(Nc2nccc(N(C)c3ccc4c(C)n(C)nc4c3)n2)cc1S(N)(=O)=O [Pazopanib] + O=C(c1cc(Cc2n[nH]c(=O)c3ccccc23)ccc1F)N1CCN(C(=O)C2CC2)CC1 [Olaparib] (partner 8 µM)
Put shortly:
as §1

Compound in the assay “Pazopanib + OSI-027”: Cc1ccc(Nc2nccc(N(C)c3ccc4c(C)n(C)nc4c3)n2)cc1S(N)(=O)=O [Pazopanib] + COc1cccc2cc(-c3nc([C@H]4CC[C@H](C(=O)O)CC4)n4ncnc(N)c34)[nH]c12 [OSI-027] (partner 0.5 µM)
An outline of the steps:
as §1

Compound in the assay “Ponatinib + Foretinib”: Cc1ccc(C(=O)Nc2ccc(CN3CCN(C)CC3)c(C(F)(F)F)c2)cc1C#Cc1cnc2cccnn12 [Ponatinib] + COc1cc2c(Oc3ccc(NC(=O)C4(C(=O)Nc5ccc(F)cc5)CC4)cc3F)ccnc2cc1OCCCN1CCOCC1 [Foretinib] (partner 0.25 µM)
Put shortly:
as §1

Turning to RERF-LC-KJ, the relative viability was 0.8 with Ponatinib + Lapatinib (first compound 0.002 µM); 0.882 in the assay with Ponatinib + Lapatinib (first compound 0.006325 µM); 0.881 in the assay with Ponatinib + Lapatinib (first compound 0.06325 µM); 0.8 with Ponatinib + Lapatinib (first compound 0.2 µM); 0.805 with Pazopanib + Olaparib (first compound 0.01 µM); 0.938 with Pazopanib + Olaparib (first compound 0.03162 µM). Also, the relative viability with Pazopanib + Olaparib (first compound 0.1 µM) was determined as 0.947; with Pazopanib + Olaparib (first compound 0.3162 µM) it was 0.785; in the assay with Pazopanib + Olaparib (first compound 1 µM), 0.583; with Pazopanib + OSI-027 (first compound 0.01 µM), 0.677; in the assay with Pazopanib + OSI-027 (first compound 0.03162 µM) it was 0.605; with Pazopanib + OSI-027 (first compound 0.1 µM) it was 0.605. Also, the relative viability in the assay with Pazopanib + OSI-027 (first compound 0.3162 µM) came out at 0.515; with Pazopanib + OSI-027 (first compound 1 µM) it was 0.617; in the assay with Ponatinib + Foretinib (first compound 0.002 µM), 0.819; with Ponatinib + Foretinib (first compound 0.006325 µM), 0.894; with Ponatinib + Foretinib (first compound 0.06325 µM) it was 0.873; with Ponatinib + Foretinib (first compound 0.2 µM) it was 0.867.
Take SK-LU-1: the relative viability with Ponatinib + Lapatinib (first compound 0.002 µM) was 0.636; with Ponatinib + Lapatinib (first compound 0.006325 µM) it was 0.858; with Ponatinib + Lapatinib (first compound 0.06325 µM) it was 0.864; with Ponatinib + Lapatinib (first compound 0.2 µM), 0.741; with Pazopanib + Olaparib (first compound 0.01 µM), 0.392; in the assay with Pazopanib + Olaparib (first compound 0.03162 µM) it was 0.483. Also, the relative viability amounted to 0.441 with Pazopanib + Olaparib (first compound 0.1 µM); 0.525 in the assay with Pazopanib + Olaparib (first compound 0.3162 µM); 0.55 with Pazopanib + Olaparib (first compound 1 µM); 0.452 with Pazopanib + OSI-027 (first compound 0.01 µM); 0.345 with Pazopanib + OSI-027 (first compound 0.03162 µM); 0.385 in the assay with Pazopanib + OSI-027 (first compound 0.1 µM). The relative viability with Pazopanib + OSI-027 (first compound 0.3162 µM) is 0.395; with Pazopanib + OSI-027 (first compound 1 µM), 0.352; in the assay with Ponatinib + Foretinib (first compound 0.002 µM), 0.852; with Ponatinib + Foretinib (first compound 0.006325 µM), 0.795; in the assay with Ponatinib + Foretinib (first compound 0.06325 µM), 0.826; in the assay with Ponatinib + Foretinib (first compound 0.2 µM), 0.63.
For SK-MES-1, the relative viability in the assay with Ponatinib + Lapatinib (first compound 0.002 µM) was determined as 0.472; in the assay with Ponatinib + Lapatinib (first compound 0.006325 µM), 0.531; with Ponatinib + Lapatinib (first compound 0.06325 µM), 0.749; in the assay with Ponatinib + Lapatinib (first compound 0.2 µM), 0.59; in the assay with Pazopanib + Olaparib (first compound 0.01 µM) it was 0.659; with Pazopanib + Olaparib (first compound 0.03162 µM), 0.684. Also, the relative viability with Pazopanib + Olaparib (first compound 0.1 µM) amounted to 0.76; in the assay with Pazopanib + Olaparib (first compound 0.3162 µM) it was 0.75; with Pazopanib + Olaparib (first compound 1 µM) it was 0.685; with Pazopanib + OSI-027 (first compound 0.01 µM), 0.643; with Pazopanib + OSI-027 (first compound 0.03162 µM), 0.629; with Pazopanib + OSI-027 (first compound 0.1 µM), 0.654. For the same cell line, the relative viability in the assay with Pazopanib + OSI-027 (first compound 0.3162 µM) was 0.585; in the assay with Pazopanib + OSI-027 (first compound 1 µM) it was 0.578; with Ponatinib + Foretinib (first compound 0.002 µM), 0.856; in the assay with Ponatinib + Foretinib (first compound 0.006325 µM), 1.08; in the assay with Ponatinib + Foretinib (first compound 0.06325 µM), 1.25; in the assay with Ponatinib + Foretinib (first compound 0.2 µM), 0.959.
Regarding SW 1573, the relative viability with Ponatinib + Lapatinib (first compound 0.002 µM) is 1.1; with Ponatinib + Lapatinib (first compound 0.006325 µM), 1.19; with Ponatinib + Lapatinib (first compound 0.06325 µM) it was 1.25; with Ponatinib + Lapatinib (first compound 0.2 µM), 1.22; with Pazopanib + Olaparib (first compound 0.01 µM), 0.471; with Pazopanib + Olaparib (first compound 0.03162 µM), 0.511. The relative viability with Pazopanib + Olaparib (first compound 0.1 µM) was 0.52; in the assay with Pazopanib + Olaparib (first compound 0.3162 µM) it was 0.531; with Pazopanib + Olaparib (first compound 1 µM), 0.517; with Pazopanib + OSI-027 (first compound 0.01 µM) it was 0.566; with Pazopanib + OSI-027 (first compound 0.03162 µM) it was 0.728; in the assay with Pazopanib + OSI-027 (first compound 0.1 µM) it was 0.684. Also, the relative viability with Pazopanib + OSI-027 (first compound 0.3162 µM) turned out to be 0.715; with Pazopanib + OSI-027 (first compound 1 µM), 0.765; with Ponatinib + Foretinib (first compound 0.002 µM), 0.75; with Ponatinib + Foretinib (first compound 0.006325 µM), 0.767; with Ponatinib + Foretinib (first compound 0.06325 µM), 0.922; with Ponatinib + Foretinib (first compound 0.2 µM) it was 0.864.

The values are drawn from the supplement of paper PMC10307832.
